Laboratory results reported in PMC7044277 (Nature Communications, 2020).
Values joined by “and” are separate entries in the source; they are usually repeats but may differ in a detail not shown here. Identical values can stand only once.

Tests used:
5HT2C = target: T1, 5HT2C (Homo sapiens, UniProt P28335); experiment: β-arrestin2 recruitment (Tango); format: cell-based; conditions: Fig_S10m; for β-arrestin2 recruitment response (dose-response source data, replicate values): drug alone; for β-arrestin2 recruitment response in presence of serotonin (replicate values): +10μM serotonin
T1 sequence (P28335 33-458): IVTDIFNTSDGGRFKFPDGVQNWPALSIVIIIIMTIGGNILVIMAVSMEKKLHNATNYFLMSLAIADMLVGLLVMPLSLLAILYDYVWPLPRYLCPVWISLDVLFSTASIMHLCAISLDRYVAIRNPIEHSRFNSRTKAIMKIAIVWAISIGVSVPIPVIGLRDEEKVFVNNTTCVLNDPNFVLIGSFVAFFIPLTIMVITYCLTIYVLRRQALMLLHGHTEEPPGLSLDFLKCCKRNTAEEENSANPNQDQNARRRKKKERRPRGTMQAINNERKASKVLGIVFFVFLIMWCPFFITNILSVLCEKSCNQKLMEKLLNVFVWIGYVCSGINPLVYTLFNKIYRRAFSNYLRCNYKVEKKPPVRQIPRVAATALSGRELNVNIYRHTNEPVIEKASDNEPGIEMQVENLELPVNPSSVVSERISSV

5HT6 = target: T2, 5HT6 (Homo sapiens, UniProt P50406); experiment: β-arrestin2 recruitment (Tango); format: cell-based; conditions: Fig_S10p, agonist mode
T2 construct: expressed in transfected cells; host or cells: HTLA cells expressing TEV-fused β-arrestin2
T2 sequence (P50406 whole entry, the tested form may be a part): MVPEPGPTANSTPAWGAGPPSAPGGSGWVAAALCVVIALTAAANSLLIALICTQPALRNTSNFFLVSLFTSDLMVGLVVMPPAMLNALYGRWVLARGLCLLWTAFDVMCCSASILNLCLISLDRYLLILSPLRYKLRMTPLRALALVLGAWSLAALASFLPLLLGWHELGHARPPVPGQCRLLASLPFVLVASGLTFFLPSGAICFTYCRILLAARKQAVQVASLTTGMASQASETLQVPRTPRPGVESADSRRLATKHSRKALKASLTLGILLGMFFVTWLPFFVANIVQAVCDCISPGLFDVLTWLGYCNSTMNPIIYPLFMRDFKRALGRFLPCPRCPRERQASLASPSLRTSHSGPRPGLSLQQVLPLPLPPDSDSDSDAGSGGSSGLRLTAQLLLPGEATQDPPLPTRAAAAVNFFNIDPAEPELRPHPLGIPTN

[1] = test system: serotonin receptor (subtype not given; reference agonist serotonin); experiment: β-arrestin2 recruitment (Tango), agonist activity, source data Fig_S10l; format: cell-based, human; conditions: drug alone
DRD2 F1103.28A = DRD2 F1103.28A (Homo sapiens, UniProt P14416, F110A); experiment: β-arrestin2 recruitment (Tango), mutant; format: cell-based; design: expressed in transfected cells; host or cells: HEK293T (ATCC CRL-11268)
Sequence of DRD2 F1103.28A (P14416 whole entry F110A): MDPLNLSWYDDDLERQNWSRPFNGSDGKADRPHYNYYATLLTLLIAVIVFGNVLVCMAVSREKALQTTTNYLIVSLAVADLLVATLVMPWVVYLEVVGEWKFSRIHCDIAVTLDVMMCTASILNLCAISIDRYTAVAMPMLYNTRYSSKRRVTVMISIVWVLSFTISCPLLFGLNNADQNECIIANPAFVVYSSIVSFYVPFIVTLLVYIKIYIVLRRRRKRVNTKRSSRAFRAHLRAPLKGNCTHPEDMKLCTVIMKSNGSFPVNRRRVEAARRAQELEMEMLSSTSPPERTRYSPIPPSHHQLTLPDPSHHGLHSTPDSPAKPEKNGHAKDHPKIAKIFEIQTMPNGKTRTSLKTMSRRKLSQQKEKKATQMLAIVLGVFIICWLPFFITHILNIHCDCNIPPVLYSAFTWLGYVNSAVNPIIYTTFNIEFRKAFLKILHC

## CCOc1cccc2cc([C@H](C)NCC3(O)CCCCC3)oc12 [O4SE6]
5HT2C; Log[Drug] -6
  β-arrestin2 recruitment response (dose-response source data, replicate values): 0.1892 and -1.167 and -2.9638 and 0.5481 and 0.639 and 4.5826 and 1.774 and -1.813 and -1.0517
5HT2C; Log[Drug] -6.52
  β-arrestin2 recruitment response in presence of serotonin (replicate values): 49.4392 and 65.2785 and 58.4136 and 69.39 and 55.9424 and 71.2915 and 76.7849 and 85.9817 and 94.9705
  β-arrestin2 recruitment response (dose-response source data, replicate values): 3.199 and -0.222 and 0.3914 and 1.323 and 0.05601 and 0.9925 and -1.994 and 1.303 and -2.122
5HT2C; Log[Drug] -7
  β-arrestin2 recruitment response in presence of serotonin (replicate values): 67.4184 and 56.2577 and 61.082 and 74.1195 and 66.0313 and 86.1338 and 77.8195 and 67.5788 and 79.0331
  β-arrestin2 recruitment response (dose-response source data, replicate values): -0.4648 and -1.599 and 4.168 and 0.2351 and 1.745 and 2.334 and 14.5501 and 3.184 and 0.1487
5HT2C; Log[Drug] -7.52
  β-arrestin2 recruitment response in presence of serotonin (replicate values): 57.9508 and 62.7389 and 68.9932 and 62.9857 and 78.9582 and 61.3863 and 70.1719 and 83.8296 and 68.1225
  β-arrestin2 recruitment response (dose-response source data, replicate values): -1.179 and -0.8967 and -0.04778 and 2.819 and 2.117 and -0.4591 and 1.974 and -0.9095 and 6.65
5HT2C; Log[Drug] -8
  β-arrestin2 recruitment response in presence of serotonin (replicate values): 70.2712 and 69.291 and 73.2872 and 71.712 and 66.0148 and 66.2452 and 79.2674 and 70.1943 and 78.2394
  β-arrestin2 recruitment response (dose-response source data, replicate values): -1.7418 and -1.636 and 0.2046 and 0.909 and -0.4958 and 0.1891 and 1.914 and -0.383 and 4.332
5HT2C; Log[Drug] -8.52
  β-arrestin2 recruitment response in presence of serotonin (replicate values): 72.9942 and 69.4566 and 60.9768 and 61.1778 and 82.5318 and 58.5381 and 71.529 and 76.0793 and 77.135
  β-arrestin2 recruitment response (dose-response source data, replicate values): -0.5405 and -0.709 and 2.709 and 0.684 and 1.936 and 3.627 and 2.573 and 6.06 and -0.7082
5HT2C; Log[Drug] -9
  β-arrestin2 recruitment response in presence of serotonin (replicate values): 65.7886 and 59.3306 and 51.1636 and 117.587 and 77.0604 and 77.3487 and 69.8244 and 87.7165 and 82.2092
  β-arrestin2 recruitment response (dose-response source data, replicate values): -2.125 and 1.403 and -1.228 and 0.9062 and -0.6032 and 0.5546 and 2.207 and 4.8202 and 4.806
5HT2C; Log[Drug] -9.52
  β-arrestin2 recruitment response in presence of serotonin (replicate values): 71.3301 and 78.8962 and 71.9628 and 82.1452 and 81.8826 and 58.8025 and 76.3992 and 91.8022 and 69.3558
  β-arrestin2 recruitment response (dose-response source data, replicate values): -0.7505 and -1.198 and -1.073 and 2.378 and 0.7896 and 2.704 and -0.6423 and 0.9477 and 0.7345
5HT6; Log[Drug] -6
  β-arrestin2 recruitment response, replicate points of concentration-response curve: -0.3035
5HT6; Log[Drug] -6.52
  β-arrestin2 recruitment response, replicate points of concentration-response curve: 1.0135 and 1.198 and 5.246 and -9.543 and -10.288 and -8.77 and 1.1615 and -3.588 and -1.1467
5HT6; Log[Drug] -7
  β-arrestin2 recruitment response, replicate points of concentration-response curve: 1.87 and 1.848 and 8.574 and -11.7696 and -2.512 and -8.797 and 0.1776 and -4.113 and -5.009
5HT6; Log[Drug] -7.52
  β-arrestin2 recruitment response, replicate points of concentration-response curve: 1.593 and -0.504 and 0.09756 and -12.1009 (2×) and -11.7328 and 60.6717 and -4.6608 and -1.753
5HT6; Log[Drug] -8
  β-arrestin2 recruitment response, replicate points of concentration-response curve: 1.669 and -1.382 and -0.2872 and -13.1683 and -12.0825 and -9.524 and -3.196 and -2.353 and 1.768
5HT6; Log[Drug] -8.52
  β-arrestin2 recruitment response, replicate points of concentration-response curve: 0.775 and 4.666 and 0.9864 and -12.4781 and -7.656 and -12.1009 and 0.3255 and -3.854 and 3.566
5HT6; Log[Drug] -9
  β-arrestin2 recruitment response, replicate points of concentration-response curve: 2.499 and 9.663 and 0.775 and -0.2945 and -9.561 and -9.543 and -2.049 and -4.424 and -4.173
5HT6; Log[Drug] -9.52
  β-arrestin2 recruitment response, replicate points of concentration-response curve: -0.09214 and 0.5474 and -0.9647 and -12.1929 and -11.3831 and -2.5214 and -5.0455 and -0.3107 and 5.623
5HT6; Log[Drug] -10
  β-arrestin2 recruitment response, replicate points of concentration-response curve: 3.149 and 2.721 and -0.1138 and 8.135 and -9.598 and -12.4689 and 1.768 and 2.893 and -2.7151
5HT6; Log[Drug] -10.52
  β-arrestin2 recruitment response, replicate points of concentration-response curve: 2.504 and 5.311 and 0.7425 and -10.7297 and -3.616 and -12.1193 and -4.52 and 13.3166 and 0.2515
5HT6; Log[Drug] -11
  β-arrestin2 recruitment response, replicate points of concentration-response curve: 0.5474 and 6.401 and -0.2981 and -6.662 and -9.929 and -5.0796 and -2.915 and -3.588 and -2.353
5HT6; Log[Drug] -11.52
  β-arrestin2 recruitment response, replicate points of concentration-response curve: 1.409 and 4.46 and -0.7262 and -4.371 and -12.837 and -12.1009 and -3.803 and -3.24 and -3.847
[1]; Log[Drug] -6.52
  response, Fig_S10l, replicate values: -2.091
[1]; Log[Drug] -7
  response, Fig_S10l, replicate values: -4.051 and -1.4228 and 2.693 and -6.163 and -1.5474 and -1.737 and -7.607 and -30.8777 and -6.976
[1]; Log[Drug] -7.52
  response, Fig_S10l, replicate values: -6.555 and -13.4609 and -0.98 and 4.322 and -3.875 and -2.693 and -7.055 and 7.925 and -34.7877
[1]; Log[Drug] -8
  response, Fig_S10l, replicate values: -3.792 and 35.132 and 2.507 and -11.1986 and -6.626 and 6.545 and -5.91 and -30.1494 and -3.473
[1]; Log[Drug] -8.52
  response, Fig_S10l, replicate values: 1.522 and -11.8615 and -2.437 and 12.7169 and -12.0506 and -8.665 and 20.957 and -2.778 and -10.1926
[1]; Log[Drug] -9
  response, Fig_S10l, replicate values: -4.295 and 4.13 and 0.2396 and -2.794 and 1.184 and 0.6235 and -1.336 and -7.8842 and -10.8253
[1]; Log[Drug] -9.52
  response, Fig_S10l, replicate values: 25.6854 and -2.744 and -6.32 and -4.5985 and -1.891 and 4.517 and 39.1804 and -4.421 and -3.844
[1]; Log[Drug] -10
  response, Fig_S10l, replicate values: -8.462 and 9.478 and -1.609 and 0.3049 and 15.9901 and -6.166 and 19.6932 and 12.6773 and 5.951
[1]; Log[Drug] -10.52
  response, Fig_S10l, replicate values: 6.737 and -12.3624 and -4.665 and -4.851 and -5.052 and -4.841 and 9.484 and 11.2587 and 10.4562
[1]; Log[Drug] -11
  response, Fig_S10l, replicate values: -35.1417 and -18.9513 and -15.3749 and 4.5184 and -0.5498 and 5.57 and -9.125 and -8.22 and 4.834
[1]; Log[Drug] -11.52
  response, Fig_S10l, replicate values: -5.783 and 6.132 and 4.745 and -13.0691 and -5.46 and 4.358 and -4.571 and 10.1317 and -13.0711
[1]; Log[Drug] -12
  response, Fig_S10l, replicate values: 6.173 and -15.2273 and 9.6789 and 4.873 and 7.863 and 1.749 and -9.697 and 0.6459 and 4.404
DRD2 F1103.28A
  EC50: > 10 µM
